# Experimental data: patent publication US20250214991A1 (Oncopia Therapeutics, Inc. d/b/a/ SK Life Science Labs, priority 2022, published 2025)
# Experiments:
# IKZF2 [1] = target: T1, IKZF2 (Homo sapiens (Human), UniProt Q96SW2+Q9UKS7); assay: In vitro IKZF2 FACS Assay in Jurkat cells; assay type: cell-based; conditions: 24 hrs; for DC50: half maximal degradation concentration; for Dmax: maximal degradation percentage
# Method: In vitro IKZF2 FACS Assay
# DC50, A: <1 nM; B: 1-10 nM; C: 10-100 nM; D: 100-1000 nM; E: >1000 nM. Dmax, A: >80%; B: 60-80%; C: 40-60%; D: 20-40%; E: <20%.
# IKZF2 [2] = target: T1, IKZF2; assay: In vitro IKZF2 HiBit Assay (HEK293T Flp-in-HiBiT cells); assay type: cell-based; conditions: HEK293T Flp-in-HiBiT cells, 6 hrs incubation; for DC50: read-out: IKZF2 HiBit DC50; for Dmax: HEK-293T, read-out: IKZF2 HiBit Dmax (%)
# How it was run: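 Remaining tagged Helios was read as lytic HiBiT/LgBiT luminescence normalized to DMSO, yielding binned DC50 and Dmax values. Treatment ran 6 h, with compounds at 11 three-fold doses diluted from 1 mM and 0.1% final DMSO. The cells were HEK293T Flp-in with CRISPR knock-in of HiBiT at the IKZF2 N-terminus.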
# IKZF1 = IKZF1 (Homo sapiens (Human), UniProt Q13422+Q96SW2); assay: In vitro IKZF1 HiBit Assay (HEK293T Flp-in-HiBiT-IKZF1 stable cell line); assay type: cell-based; conditions: HEK293T Flp-in-HiBiT-IKZF1 stable cell line, 6 hrs incubation; for DC50: read-out: IKZF1 HiBit DC50; for Dmax: HEK-293T, read-out: IKZF1 HiBit Dmax (%)
# Sequence of IKZF1 (Q13422 whole entry): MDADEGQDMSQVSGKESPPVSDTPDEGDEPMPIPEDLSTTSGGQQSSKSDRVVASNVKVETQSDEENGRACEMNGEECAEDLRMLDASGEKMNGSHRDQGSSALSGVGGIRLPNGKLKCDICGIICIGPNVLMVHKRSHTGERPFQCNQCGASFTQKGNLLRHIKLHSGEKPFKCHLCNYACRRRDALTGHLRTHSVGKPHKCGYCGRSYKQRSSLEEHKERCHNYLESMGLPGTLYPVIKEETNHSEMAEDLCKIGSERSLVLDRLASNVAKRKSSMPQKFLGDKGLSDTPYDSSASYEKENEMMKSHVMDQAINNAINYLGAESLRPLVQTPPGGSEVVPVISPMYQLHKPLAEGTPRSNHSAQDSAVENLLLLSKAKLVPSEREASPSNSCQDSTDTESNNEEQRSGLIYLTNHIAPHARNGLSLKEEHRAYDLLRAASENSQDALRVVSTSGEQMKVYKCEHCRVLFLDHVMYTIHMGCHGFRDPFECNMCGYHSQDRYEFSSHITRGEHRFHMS
# Sequence of IKZF1 (Q96SW2 whole entry): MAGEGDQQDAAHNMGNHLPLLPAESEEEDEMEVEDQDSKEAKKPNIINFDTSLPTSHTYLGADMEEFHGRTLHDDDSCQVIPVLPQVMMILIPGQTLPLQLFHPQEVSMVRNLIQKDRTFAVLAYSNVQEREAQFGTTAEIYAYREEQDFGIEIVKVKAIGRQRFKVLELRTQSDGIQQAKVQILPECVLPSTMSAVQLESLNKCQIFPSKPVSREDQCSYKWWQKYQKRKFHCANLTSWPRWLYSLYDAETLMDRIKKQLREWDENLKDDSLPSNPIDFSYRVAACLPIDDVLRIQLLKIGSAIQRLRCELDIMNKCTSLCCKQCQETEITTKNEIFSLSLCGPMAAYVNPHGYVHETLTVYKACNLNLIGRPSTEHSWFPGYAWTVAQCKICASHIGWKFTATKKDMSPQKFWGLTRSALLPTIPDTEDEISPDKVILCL
# Sequence of IKZF1 (Q16531 2-1140 partner): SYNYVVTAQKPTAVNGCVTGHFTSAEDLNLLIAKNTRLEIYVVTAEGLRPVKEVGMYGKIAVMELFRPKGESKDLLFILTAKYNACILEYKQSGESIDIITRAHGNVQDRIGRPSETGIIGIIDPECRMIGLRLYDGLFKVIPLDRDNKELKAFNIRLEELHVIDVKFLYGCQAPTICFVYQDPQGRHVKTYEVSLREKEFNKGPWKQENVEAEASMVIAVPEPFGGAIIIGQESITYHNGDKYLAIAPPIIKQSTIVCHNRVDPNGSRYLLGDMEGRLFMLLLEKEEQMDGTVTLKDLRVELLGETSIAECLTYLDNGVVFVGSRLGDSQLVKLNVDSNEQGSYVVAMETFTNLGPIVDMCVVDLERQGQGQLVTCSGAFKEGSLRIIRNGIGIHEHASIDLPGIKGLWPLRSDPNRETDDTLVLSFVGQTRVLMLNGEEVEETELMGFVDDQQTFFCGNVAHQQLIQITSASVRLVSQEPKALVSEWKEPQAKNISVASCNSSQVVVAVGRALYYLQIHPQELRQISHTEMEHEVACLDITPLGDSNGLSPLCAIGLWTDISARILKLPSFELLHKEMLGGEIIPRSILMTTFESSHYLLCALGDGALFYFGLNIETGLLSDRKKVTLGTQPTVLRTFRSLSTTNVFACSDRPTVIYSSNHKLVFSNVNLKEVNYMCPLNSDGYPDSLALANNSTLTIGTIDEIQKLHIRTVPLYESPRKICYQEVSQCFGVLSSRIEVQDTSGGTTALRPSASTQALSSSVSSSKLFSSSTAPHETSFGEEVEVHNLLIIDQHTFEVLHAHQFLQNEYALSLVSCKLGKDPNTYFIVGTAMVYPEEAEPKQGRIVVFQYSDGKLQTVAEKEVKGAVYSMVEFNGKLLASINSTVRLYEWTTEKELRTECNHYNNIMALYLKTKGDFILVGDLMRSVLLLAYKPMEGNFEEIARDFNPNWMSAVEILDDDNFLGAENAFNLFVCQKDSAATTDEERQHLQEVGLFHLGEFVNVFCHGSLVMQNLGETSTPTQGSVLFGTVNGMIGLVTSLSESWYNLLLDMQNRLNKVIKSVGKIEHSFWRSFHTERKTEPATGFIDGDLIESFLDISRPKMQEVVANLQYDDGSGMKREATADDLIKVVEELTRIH
# How it was run: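 Degradation was measured as loss of luminescence from the HiBiT-IKZF1 tag after 6 h compound treatment, with 0.1% final DMSO, in stable HEK293T Flp-in cells. Values were normalized to DMSO, giving the 50% degradation concentration and the maximal degradation range.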
# CRBN/DDB1 = CRBN/DDB1 (Homo sapiens (Human), UniProt Q96SW2); assay: IC50 measurements for binding to CRBN/DDB1 (HTRF); conditions: His tagged CRBN+DDB, Cy5-labeled Thalidomide probe, one hour
# Sequence of CRBN/DDB1 (Q96SW2 whole entry, species assumed): as the sequence (Q96SW2 whole entry) above
# Sequence of CRBN/DDB1 (Q16531 whole entry partner, species assumed): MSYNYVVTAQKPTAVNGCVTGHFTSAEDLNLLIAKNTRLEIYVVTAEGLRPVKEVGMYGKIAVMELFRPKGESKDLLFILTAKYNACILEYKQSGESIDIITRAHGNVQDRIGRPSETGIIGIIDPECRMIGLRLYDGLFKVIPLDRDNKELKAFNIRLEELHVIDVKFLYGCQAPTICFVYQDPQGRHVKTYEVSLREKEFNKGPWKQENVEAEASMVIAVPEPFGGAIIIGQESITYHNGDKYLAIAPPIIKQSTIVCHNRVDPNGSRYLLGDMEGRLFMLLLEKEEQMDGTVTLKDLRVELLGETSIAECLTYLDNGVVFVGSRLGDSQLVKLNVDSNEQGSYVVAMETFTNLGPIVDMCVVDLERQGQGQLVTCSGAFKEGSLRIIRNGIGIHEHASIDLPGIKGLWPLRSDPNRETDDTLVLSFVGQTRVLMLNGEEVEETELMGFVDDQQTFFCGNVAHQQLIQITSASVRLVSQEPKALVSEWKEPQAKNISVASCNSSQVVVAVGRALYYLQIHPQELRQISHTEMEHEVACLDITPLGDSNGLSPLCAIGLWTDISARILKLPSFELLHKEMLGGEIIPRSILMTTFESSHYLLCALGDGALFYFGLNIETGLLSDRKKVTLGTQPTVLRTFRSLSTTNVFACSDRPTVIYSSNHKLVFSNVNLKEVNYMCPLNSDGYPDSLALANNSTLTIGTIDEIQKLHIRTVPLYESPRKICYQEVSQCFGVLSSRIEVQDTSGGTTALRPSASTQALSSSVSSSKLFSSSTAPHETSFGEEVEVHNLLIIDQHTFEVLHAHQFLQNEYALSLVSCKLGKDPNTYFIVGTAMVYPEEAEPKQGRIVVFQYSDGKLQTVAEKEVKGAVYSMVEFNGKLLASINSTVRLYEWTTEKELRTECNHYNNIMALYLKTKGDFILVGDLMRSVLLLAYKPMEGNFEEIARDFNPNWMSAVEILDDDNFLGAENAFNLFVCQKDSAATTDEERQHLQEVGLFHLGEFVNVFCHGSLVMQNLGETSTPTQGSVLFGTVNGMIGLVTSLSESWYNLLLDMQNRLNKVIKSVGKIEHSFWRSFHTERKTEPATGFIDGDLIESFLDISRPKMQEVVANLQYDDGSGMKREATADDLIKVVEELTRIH
# How it was run: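 Serially diluted compounds compete with a Cy5-labeled thalidomide tracer (60 nM) for His-tagged CRBN-DDB1 (2 nM), detected via anti-6His Tb cryptate (0.4 nM); buffer HEPES pH 7.5 with TCEP, Brij-35, NaCl, BSA. One-hour room-temperature incubation, HTRF signal read, IC50 by four-parameter curve.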
# T1 sequence (Q9UKS7 whole entry): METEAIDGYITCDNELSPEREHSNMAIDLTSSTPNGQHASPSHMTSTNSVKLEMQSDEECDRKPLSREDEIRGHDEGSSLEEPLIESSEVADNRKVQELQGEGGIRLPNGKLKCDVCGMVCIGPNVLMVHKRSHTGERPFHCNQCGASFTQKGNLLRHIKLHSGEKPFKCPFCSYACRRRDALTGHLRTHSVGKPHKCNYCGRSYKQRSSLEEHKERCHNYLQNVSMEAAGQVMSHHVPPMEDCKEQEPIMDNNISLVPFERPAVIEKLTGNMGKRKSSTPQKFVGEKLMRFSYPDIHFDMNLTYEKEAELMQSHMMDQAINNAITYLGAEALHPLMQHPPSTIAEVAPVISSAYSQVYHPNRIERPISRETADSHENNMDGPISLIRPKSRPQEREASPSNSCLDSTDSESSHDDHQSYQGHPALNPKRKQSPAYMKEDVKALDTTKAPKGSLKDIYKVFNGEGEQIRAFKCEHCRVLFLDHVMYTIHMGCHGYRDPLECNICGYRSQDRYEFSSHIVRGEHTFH
# T1 sequence (Q96SW2 whole entry): as the sequence (Q96SW2 whole entry) above
# T1 sequence (Q16531 2-1140 partner): as the sequence (Q16531 2-1140 partner) above
DC50 (IKZF2 [1]) [nM],Dmax (IKZF2 [1]) [%],DC50 (IKZF2 [2]) [nM],Dmax (IKZF2 [2]) [%],DC50 (IKZF1) [nM],Dmax (IKZF1) [%],IC50 (CRBN/DDB1) [nM],SMILES
1 to 10,> 80,1 to 10,> 80,> 10000,< 20,,"Nc1n[nH]c2c(CN3CCCC3)cc(-c3ccc4c(c3)CN(C3CCC(=O)NC3=O)C4=O)nc12 (stereo not shown) [Example 151, 3-(5-(3-amino-7-(pyrrolidin-1-ylmethyl)-1H-pyrazolo[4,3-b]pyridin-5-yl)-1-oxoisoindolin-2-yl) piperidine-2,6-dione]"
10 to 100,> 80,1 to 10,> 80,1 to 10,20 to 40,,"Cn1cnc2c(CN3CCCC3)cc(-c3ccc4c(c3)CN(C3CCC(=O)NC3=O)C4=O)nc21 (stereo not shown) [Example 180, 3-(5-(3-methyl-7-(pyrrolidin-1-ylmethyl)-3H-imidazo[4,5-b]pyridin-5-yl)-1-oxoisoindolin-2-yl) piperidine-2,6-dione]"
1 to 10,> 80,1 to 10,> 80,10 to 100,40 to 60,,"CNc1n[nH]c2c(CN3CCCC3)cc(-c3ccc4c(c3)CN(C3CCC(=O)NC3=O)C4=O)nc12 (stereo not shown) [Example 181, 3-(5-(3-(methylamino)-7-(pyrrolidin-1-ylmethyl)-1H-pyrazolo[4,3-b]pyridin-5-yl)-1-oxoisoindolin-2-yl) piperidine-2,6-dione]"
10 to 100,60 to 80,1 to 10,> 80,> 10000,< 20,,"O=C1CCC(N2Cc3cc(-c4nc(CN5CCCC5)c5cc[nH]c5n4)ccc3C2=O)C(=O)N1 (stereo not shown) [Example 182, 3-(1-oxo-5-(4-(pyrrolidin-1-ylmethyl)-7H-pyrrolo[2,3-d]pyrimidin-2-yl)isoindolin-2-yl) piperidine-2,6-dione]"
10 to 100,60 to 80,1 to 10,> 80,10 to 100,20 to 40,,"CCNc1n[nH]c2c(CN3CCCC3)cc(-c3ccc4c(c3)CN(C3CCC(=O)NC3=O)C4=O)nc12 (stereo not shown) [Example 199, 3-(5-(3-(ethylamino)-7-(pyrrolidin-1-ylmethyl)-1H-pyrazolo[4,3-b]pyridin-5-yl)-1-oxoisoindolin-2-yl) piperidine-2,6-dione]"
1 to 10,> 80,1 to 10,> 80,10 to 100,20 to 40,,"O=C1CCC(N2Cc3cc(-c4cc(CN5CCCC5)c5cnn(C6COC6)c5n4)ccc3C2=O)C(=O)N1 (stereo not shown) [Example 203, 3-(5-(1-(oxetan-3-yl)-4-(pyrrolidin-1-ylmethyl)-1H-pyrazolo[3,4-b]pyridin-6-yl)-1-oxoisoindolin-2-yl) piperidine-2,6-dione]"
1 to 10,> 80,1 to 10,> 80,> 10000,< 20,,"O=C1CCC(N2Cc3cc(-c4cc(CN5CCCC5)c5cnn(C6CCC6)c5n4)ccc3C2=O)C(=O)N1 (stereo not shown) [Example 206, 3-(5-(1-cyclobutyl-4-(pyrrolidin-1-ylmethyl)-1H-pyrazolo[3,4-b]pyridin-6-yl)-1-oxoisoindolin-2-yl) piperidine-2,6-dione]"
10 to 100,40 to 60,10 to 100,60 to 80,> 10000,< 20,,"O=C1CCC(N2Cc3cc(-c4nc(CN5CCCC5)c5ccn(C6CS(=O)(=O)C6)c5n4)ccc3C2=O)C(=O)N1 (stereo not shown) [Example 220, 3-(5-(7-(1,1-dioxidothietan-3-yl)-4-(pyrrolidin-1-ylmethyl)-7H-pyrrolo[2,3-d]pyrimidin-2-yl)-1-oxoisoindolin-2-yl) piperidine-2,6-dione]"
1 to 10,> 80,1 to 10,> 80,> 10000,< 20,,"Cc1cn(C2COC2)c2nc(-c3ccc4c(c3)CN(C3CCC(=O)NC3=O)C4=O)cc(CN3CCCC3)c12 (stereo not shown) [Example 240, 3-(5-(3-methyl-1-(oxetan-3-yl)-4-(pyrrolidin-1-ylmethyl)-1H-pyrrolo[2,3-b]pyridin-6-yl)-1-oxoisoindolin-2-yl) piperidine-2,6-dione]"
1 to 10,> 80,1 to 10,> 80,> 10000,< 20,,"O=C1CCC(N2Cc3cc(-c4cc(CN5CCCC5)c5nccc(OC6CC6)c5n4)ccc3C2=O)C(=O)N1 (stereo not shown) [Example 242, 3-(5-(8-cyclopropoxy-4-(pyrrolidin-1-ylmethyl)-1,5-naphthyridin-2-yl)-1-oxoisoindolin-2-yl) piperidine-2,6-dione]"
1 to 10,40 to 60,1 to 10,40 to 60,> 10000,< 20,,"O=C1CCC(N2Cc3cc(-c4cc(CN5CCCC5)c5c(C(F)(F)F)nn(C6COC6)c5n4)ccc3C2=O)C(=O)N1 (stereo not shown) [Example 245, 3-(5-(1-(oxetan-3-yl)-4-(pyrrolidin-1-ylmethyl)-3-(trifluoromethyl)-1H-pyrazolo[3,4-b]pyridin-6-yl)-1-oxoisoindolin-2-yl) piperidine-2,6-dione]"
1 to 10,> 80,1 to 10,> 80,> 10000,< 20,,"Cc1nn(C2COC2)c2nc(-c3ccc4c(c3)CN(C3CCC(=O)NC3=O)C4=O)cc(CN3CCCC3)c12 (stereo not shown) [Example 246, 3-(5-(3-methyl-1-(oxetan-3-yl)-4-(pyrrolidin-1-ylmethyl)-1H-pyrazolo[3,4-b]pyridin-6-yl)-1-oxoisoindolin-2-yl) piperidine-2,6-dione]"
< 1,> 80,< 1,> 80,100 to 1000,20 to 40,,"Cn1cc(-n2ccc3c(CN4CCCC4)cc(-c4ccc5c(c4)CN(C4CCC(=O)NC4=O)C5=O)nc32)cn1 (stereo not shown) [Example 248, 3-(5-(1-(1-methyl-1H-pyrazol-4-yl)-4-(pyrrolidin-1-ylmethyl)-1H-pyrrolo[2,3-b]pyridin-6-yl)-1-oxoisoindolin-2-yl) piperidine-2,6-dione]"
1 to 10,> 80,1 to 10,> 80,> 10000,< 20,,"O=C1CCC(N2Cc3cc(-c4cc(CN5CCCC5)c5nccc(OC(F)F)c5n4)ccc3C2=O)C(=O)N1 (stereo not shown) [Example 249, 3-(5-(8-(difluoromethoxy)-4-(pyrrolidin-1-ylmethyl)-1,5-naphthyridin-2-yl)-1-oxoisoindolin-2-yl) piperidine-2,6-dione]"
,,< 1,> 80,10 to 100,20 to 40,1000 to 5000,"Cn1ncc2c(CN3CCCC3)cc(-c3ccc4c(c3)CN(C3CCC(=O)NC3=O)C4=O)nc21 (stereo not shown) [Example 313, 3-(5-(1-methyl-4-(pyrrolidin-1-ylmethyl)-1H-pyrazolo[3,4-b]pyridin-6-yl)-1-oxoisoindolin-2-yl) piperidine-2,6-dione]"
,,10 to 100,> 80,10 to 100,20 to 40,100 to 500,"Cn1cc2c(CN3CCCC3)cc(-c3ccc4c(c3)CN(C3CCC(=O)NC3=O)C4=O)nc2n1 (stereo not shown) [Example 315, 3-(5-(2-methyl-4-(pyrrolidin-1-ylmethyl)-2H-pyrazolo[3,4-b]pyridin-6-yl)-1-oxoisoindolin-2-yl) piperidine-2,6-dione]"
,,1 to 10,> 80,10 to 100,20 to 40,100 to 500,"O=C1CCC(N2Cc3cc(-c4cc(CN5CCCC5)c5cn(C6CCC6)nc5n4)ccc3C2=O)C(=O)N1 (stereo not shown) [Example 316, 3-(5-(2-cyclobutyl-4-(pyrrolidin-1-ylmethyl)-2H-pyrazolo[3,4-b]pyridin-6-yl)-1-oxoisoindolin-2-yl) piperidine-2,6-dione]"
,,1 to 10,60 to 80,> 10000,< 20,100 to 500,"O=C1CCC(N2Cc3cc(-c4cc(CN5CCCC5)c5cn(C6COC6)nc5n4)ccc3C2=O)C(=O)N1 (stereo not shown) [Example 317, 3-(5-(2-(oxetan-3-yl)-4-(pyrrolidin-1-ylmethyl)-2H-pyrazolo[3,4-b]pyridin-6-yl)-1-oxoisoindolin-2-yl) piperidine-2,6-dione]"

SMILES,DC50 (IKZF2 [1]) [nM],Dmax (IKZF2 [1]) [%],DC50 (IKZF2 [2]) [nM],Dmax (IKZF2 [2]) [%],DC50 (IKZF1) [nM],Dmax (IKZF1) [%],IC50 (CRBN/DDB1) [nM]
"O=C1CCC(N2Cc3cc(-c4ncn5ccc(CN6CCCC6)cc45)ccc3C2=O)C(=O)N1 (stereo not shown) [Example 312, 3-(1-oxo-5-(7-(pyrrolidin-1-ylmethyl)imidazo[1,5-a]pyridin-1-yl)isoindolin-2-yl) piperidine-2,6-dione]",,,10 to 100,20 to 40,> 10000,< 20,1000 to 5000
